Experimental data: patent publication US8431715B2, “Thiazole compound (as PPARδ) ligand and pharmaceutical, cosmetic and health food comprised thereof” (Seoul National University Industry Foundation, priority 2007, dated 2013)

Key:
Format in all cases: in vivo
mice = experiment: Morris water maze test, treatment in pregnancy and lactation; details: 10 mg/kg oral to pregnant mice, control 24.2 sec
Protocol: An animal test was performed to investigate the therapeutic effect of the compound of the present invention on dementia and Parkinson's disease based on the memory improving effect thereof. To confirm the effect of the compound of the present invention in the period of brain development, the compound was orally administered to pregnant mice at the concentration of 10 mg/kg in the periods of pregnancy and lactation. Morris water maze test was performed to detect any changes of the brain functions of the treatment group and the control group.

C57BL/6 mice [1] = experiment: Reproductive toxicity test
Protocol: Acute toxicity and reproductive toxicity tests were performed using mice to evaluate the toxicity of the compound of the present invention. The compound of formula 1 was orally administered to ICR mice at 6 weeks at the dosage of 50 mg/kg, 300 mg/kg and 2000 mg/kg, followed by observation on toxicity for 14 days. […] The result of reproductive toxicity test using C57BL/6 mice was also consistent with the above, which is no toxicity caused by the compound of formula 1 was observed. After oral-administration of the compound to the pregnant female mice, weight gain and growth speed of fetus were investigated.

C57BL/6 mice [2] = experiment: Hyperlipidemia improving effect, blood HDL level; details: 10 mg/kg/day oral, high fat feeds, 6 weeks, serum
Protocol: In vivo animal test using C57BL/6 (SLC Co.) mice at 6 weeks was performed to confirm the hyperlipidemia improving effect of the compound of the present invention. […] 6 weeks later, blood was taken from orbital veins. Serum was separated and blood HDL level was measured by biochemical method.

`Cc1cc(S[C@H](Cc2ccccc2)c2sc(-c3ccc(C(F)(F)F)cc3)nc2C)ccc1OCC(=O)O` (racemic) [formula 1] was tested, and the “average time spent to find the platform” value (mice) was 6.8 s, the “bone development and disease related matters” value (C57BL/6 mice [1]; mouse, in vivo, po) was “no changes” and the “weight gain and growth speed of fetus” value (C57BL/6 mice [1]; mouse, in vivo, po) was “no significant difference”. For the same molecule, the reproductive toxicity (C57BL/6 mice [1]; oral, pregnant female mice) was “no toxicity” and the “HDL level increase compared with the control” value (C57BL/6 mice [2]) was 44.6%.
